Measured values published in patent publication US8604217B2, “Compound, a process for its preparation, a pharmaceutical composition, use of a compound, a method for modulating or regulating serine/threonine kinases and a serine/threonine kinases modulating agent” (Selvita S.A., priority 2009, dated 2013).

How the values were obtained:
Test in all cases: KinaseProfiler kinase panel
[1] = molecular target: Lck(h) (Homo sapiens (Human), UniProt P06239); format: biochemical
[2] = molecular target: PTK5(h) (Homo sapiens (Human), UniProt P42685); format: biochemical
[3] = molecular target: cKit(h) (Homo sapiens (Human), UniProt P10721); format: biochemical
[4] = molecular target: Itk(h) (Homo sapiens (Human), UniProt Q08881); format: biochemical
[5] = molecular target: FGFR1(h) (Homo sapiens (Human), UniProt P11362); format: biochemical
[6] = molecular target: CK1γ2(h) (Homo sapiens (Human), UniProt P78368); format: biochemical
[7] = molecular target: CSK(h) (Homo sapiens (Human), UniProt P41240); format: biochemical
[8] = molecular target: MAPK2(h) (Homo sapiens (Human), UniProt P28482); format: biochemical
[9] = molecular target: CDK5/p35(h) (Homo sapiens (Human), UniProt Q00535); format: biochemical
[10] = molecular target: PKCι(h) (Homo sapiens (Human), UniProt P41743); format: biochemical
Sequence of PKCι(h) (P41743 whole entry): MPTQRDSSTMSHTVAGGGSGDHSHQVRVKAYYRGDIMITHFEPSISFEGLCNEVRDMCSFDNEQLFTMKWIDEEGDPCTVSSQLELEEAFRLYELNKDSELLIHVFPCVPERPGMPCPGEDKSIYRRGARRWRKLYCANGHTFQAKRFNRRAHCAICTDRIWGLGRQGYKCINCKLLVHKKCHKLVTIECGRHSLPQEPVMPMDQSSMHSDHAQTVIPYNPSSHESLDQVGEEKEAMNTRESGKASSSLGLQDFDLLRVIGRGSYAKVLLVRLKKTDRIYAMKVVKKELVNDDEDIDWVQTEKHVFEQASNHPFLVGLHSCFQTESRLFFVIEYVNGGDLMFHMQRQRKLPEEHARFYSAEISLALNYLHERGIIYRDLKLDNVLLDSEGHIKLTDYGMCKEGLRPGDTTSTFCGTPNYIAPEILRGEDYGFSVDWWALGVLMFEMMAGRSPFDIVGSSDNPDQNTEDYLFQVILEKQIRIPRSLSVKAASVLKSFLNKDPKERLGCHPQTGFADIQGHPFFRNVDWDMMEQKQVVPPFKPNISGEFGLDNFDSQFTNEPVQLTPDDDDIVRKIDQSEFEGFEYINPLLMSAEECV

[11] = molecular target: PhKγ2(h) (Homo sapiens (Human), UniProt P15735); format: biochemical
Sequence of PhKγ2(h) (P15735 whole entry): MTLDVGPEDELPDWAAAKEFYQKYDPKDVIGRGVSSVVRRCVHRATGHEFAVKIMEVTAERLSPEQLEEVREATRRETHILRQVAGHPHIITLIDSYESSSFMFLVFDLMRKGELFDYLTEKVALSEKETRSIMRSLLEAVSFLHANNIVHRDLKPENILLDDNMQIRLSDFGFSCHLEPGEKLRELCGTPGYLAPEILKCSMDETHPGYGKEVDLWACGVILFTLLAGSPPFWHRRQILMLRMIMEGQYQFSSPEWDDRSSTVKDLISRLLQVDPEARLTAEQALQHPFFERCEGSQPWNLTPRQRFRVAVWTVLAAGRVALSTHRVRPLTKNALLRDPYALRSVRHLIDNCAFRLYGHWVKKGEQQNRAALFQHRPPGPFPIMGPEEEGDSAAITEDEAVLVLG

[12] = molecular target: EphB2(h) (Homo sapiens (Human), UniProt P29323); format: biochemical
Sequence of EphB2(h) (P29323 19-1055): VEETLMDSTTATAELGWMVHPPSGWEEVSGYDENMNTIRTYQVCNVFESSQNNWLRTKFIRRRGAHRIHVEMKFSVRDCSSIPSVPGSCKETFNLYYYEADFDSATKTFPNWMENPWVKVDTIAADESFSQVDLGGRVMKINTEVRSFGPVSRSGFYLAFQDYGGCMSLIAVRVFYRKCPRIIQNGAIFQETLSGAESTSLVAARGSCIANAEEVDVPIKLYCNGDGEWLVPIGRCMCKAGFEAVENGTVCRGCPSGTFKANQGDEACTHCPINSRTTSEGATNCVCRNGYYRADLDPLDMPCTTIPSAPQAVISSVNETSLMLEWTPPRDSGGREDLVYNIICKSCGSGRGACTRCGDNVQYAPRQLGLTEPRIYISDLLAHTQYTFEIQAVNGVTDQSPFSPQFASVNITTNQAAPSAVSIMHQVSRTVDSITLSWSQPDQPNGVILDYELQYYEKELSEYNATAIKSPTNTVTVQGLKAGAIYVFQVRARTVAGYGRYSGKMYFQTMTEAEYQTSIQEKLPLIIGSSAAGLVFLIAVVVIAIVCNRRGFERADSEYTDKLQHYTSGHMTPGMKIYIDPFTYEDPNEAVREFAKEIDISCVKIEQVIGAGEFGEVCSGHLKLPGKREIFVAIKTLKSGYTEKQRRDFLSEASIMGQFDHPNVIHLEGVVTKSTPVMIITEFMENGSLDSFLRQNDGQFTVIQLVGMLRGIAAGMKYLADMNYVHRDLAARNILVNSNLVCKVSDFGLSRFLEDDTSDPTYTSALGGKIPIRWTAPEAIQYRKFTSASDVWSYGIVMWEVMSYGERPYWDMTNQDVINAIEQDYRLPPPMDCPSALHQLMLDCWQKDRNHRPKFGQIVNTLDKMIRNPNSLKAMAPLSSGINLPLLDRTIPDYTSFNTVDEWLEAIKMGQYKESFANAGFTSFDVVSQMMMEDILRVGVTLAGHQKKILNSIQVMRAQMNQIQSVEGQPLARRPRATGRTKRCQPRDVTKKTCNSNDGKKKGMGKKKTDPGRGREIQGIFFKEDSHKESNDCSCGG

[13] = molecular target: CaMKIV(h) (Homo sapiens (Human), UniProt Q16566); format: biochemical
Sequence of CaMKIV(h) (Q16566 whole entry): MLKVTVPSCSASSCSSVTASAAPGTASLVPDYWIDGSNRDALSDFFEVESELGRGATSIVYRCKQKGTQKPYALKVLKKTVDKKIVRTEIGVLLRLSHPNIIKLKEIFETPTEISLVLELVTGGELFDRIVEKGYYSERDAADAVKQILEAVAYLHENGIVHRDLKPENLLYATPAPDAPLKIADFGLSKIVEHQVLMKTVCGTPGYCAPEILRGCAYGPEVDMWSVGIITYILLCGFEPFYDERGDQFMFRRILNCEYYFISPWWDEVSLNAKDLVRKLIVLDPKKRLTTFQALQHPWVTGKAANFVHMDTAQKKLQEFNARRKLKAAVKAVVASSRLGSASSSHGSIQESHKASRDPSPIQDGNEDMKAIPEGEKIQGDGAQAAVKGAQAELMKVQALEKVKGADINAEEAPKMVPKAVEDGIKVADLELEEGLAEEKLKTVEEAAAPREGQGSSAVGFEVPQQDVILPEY

[14] = molecular target: cSRC(h) (Homo sapiens (Human), UniProt P12931); format: biochemical
[15] = molecular target: FAK(h) (Homo sapiens (Human), UniProt Q05397); format: biochemical
[16] = molecular target: MKK6(h) (Homo sapiens (Human), UniProt P52564); format: biochemical
[17] = molecular target: EGFR(h) (Homo sapiens (Human), UniProt P00533); format: biochemical
[18] = molecular target: IRAK1(h) (Homo sapiens (Human), UniProt P51617); format: biochemical
[19] = molecular target: PAK3(h) (Homo sapiens (Human), UniProt O75914); format: biochemical
[20] = molecular target: PKBα(h) (Homo sapiens (Human), UniProt P31749); format: biochemical
[21] = molecular target: MKK7β(h) (Homo sapiens (Human), UniProt O14733); format: biochemical
Sequence of MKK7β(h) (O14733 whole entry, stated change not applied): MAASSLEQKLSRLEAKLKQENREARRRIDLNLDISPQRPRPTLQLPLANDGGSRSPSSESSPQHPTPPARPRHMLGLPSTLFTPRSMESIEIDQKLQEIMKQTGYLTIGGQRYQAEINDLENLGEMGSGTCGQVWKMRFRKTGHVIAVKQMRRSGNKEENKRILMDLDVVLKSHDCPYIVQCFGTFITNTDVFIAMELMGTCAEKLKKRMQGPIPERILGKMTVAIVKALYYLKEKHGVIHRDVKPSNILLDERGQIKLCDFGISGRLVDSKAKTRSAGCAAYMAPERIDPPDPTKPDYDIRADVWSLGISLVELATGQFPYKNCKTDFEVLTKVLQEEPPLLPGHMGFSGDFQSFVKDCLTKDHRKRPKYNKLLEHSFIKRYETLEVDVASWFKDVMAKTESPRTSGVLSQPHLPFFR

[22] = molecular target: Ret (V804L)(h) (Homo sapiens (Human), UniProt P07949, V804L); format: biochemical
[23] = molecular target: PRK2(h) (Homo sapiens (Human), UniProt Q16513); format: biochemical
[24] = molecular target: Fer(h) (Homo sapiens (Human), UniProt P16591); format: biochemical
[25] = molecular target: Abl (H396P) (h) (Homo sapiens (Human), UniProt P00519, H396P); format: biochemical
[26] = molecular target: PKCβI(h) (Homo sapiens (Human), UniProt P05771); format: biochemical
[27] = molecular target: Tec(h) activated (Homo sapiens (Human), UniProt P42680); format: biochemical
Sequence of Tec(h) activated (P42680 whole entry): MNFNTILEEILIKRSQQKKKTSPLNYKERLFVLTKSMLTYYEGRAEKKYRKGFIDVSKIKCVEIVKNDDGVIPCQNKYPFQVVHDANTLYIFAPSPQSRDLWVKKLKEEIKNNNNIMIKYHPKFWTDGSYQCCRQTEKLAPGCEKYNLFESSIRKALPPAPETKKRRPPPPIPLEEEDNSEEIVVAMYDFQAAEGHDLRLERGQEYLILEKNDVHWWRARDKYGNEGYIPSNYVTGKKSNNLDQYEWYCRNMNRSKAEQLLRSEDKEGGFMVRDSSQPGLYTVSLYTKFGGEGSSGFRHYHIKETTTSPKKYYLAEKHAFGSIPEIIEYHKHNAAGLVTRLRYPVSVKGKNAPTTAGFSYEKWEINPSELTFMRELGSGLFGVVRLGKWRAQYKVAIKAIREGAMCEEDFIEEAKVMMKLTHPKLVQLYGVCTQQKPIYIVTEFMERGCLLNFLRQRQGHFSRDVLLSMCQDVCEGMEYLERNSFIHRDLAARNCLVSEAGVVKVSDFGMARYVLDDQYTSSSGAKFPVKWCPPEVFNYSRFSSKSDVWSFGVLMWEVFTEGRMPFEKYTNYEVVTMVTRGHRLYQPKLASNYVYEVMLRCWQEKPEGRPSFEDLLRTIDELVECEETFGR

[28] = test system: CK1(y); format: biochemical, yeast; settings: 1 μM
[29] = molecular target: Fms(Y969C)(h) (Homo sapiens (Human), UniProt P07333, Y969C); format: biochemical
[30] = molecular target: Lck(h) activated (Homo sapiens (Human), UniProt P06239); format: biochemical
[31] = molecular target: BRK(h) (Homo sapiens (Human), UniProt Q13882); format: biochemical
Sequence of BRK(h) (Q13882 whole entry): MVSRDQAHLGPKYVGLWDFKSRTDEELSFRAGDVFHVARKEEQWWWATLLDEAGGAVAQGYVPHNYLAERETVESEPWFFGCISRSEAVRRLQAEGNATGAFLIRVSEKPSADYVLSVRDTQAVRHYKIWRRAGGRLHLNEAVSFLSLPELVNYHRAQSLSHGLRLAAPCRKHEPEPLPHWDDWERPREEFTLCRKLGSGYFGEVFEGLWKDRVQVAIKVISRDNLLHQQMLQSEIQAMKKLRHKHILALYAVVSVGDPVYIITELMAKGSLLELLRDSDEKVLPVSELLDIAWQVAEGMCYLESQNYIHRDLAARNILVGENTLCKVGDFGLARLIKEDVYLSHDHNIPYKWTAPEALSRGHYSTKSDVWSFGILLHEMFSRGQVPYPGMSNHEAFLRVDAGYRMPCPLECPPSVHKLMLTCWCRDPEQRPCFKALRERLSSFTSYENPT

[32] = molecular target: SGK2(h) (Homo sapiens (Human), UniProt Q9HBY8); format: biochemical
[33] = molecular target: KDR(h) (Homo sapiens (Human), UniProt P35968); format: biochemical
[34] = molecular target: CDK1/cyclinB(h) (Homo sapiens (Human), UniProt P06493); format: biochemical
[35] = molecular target: eEF-2K(h) (Homo sapiens (Human), UniProt O00418); format: biochemical
[36] = molecular target: SIK(h) (Homo sapiens (Human), UniProt P57059); format: biochemical
[37] = molecular target: ACK1(h) (Homo sapiens (Human), UniProt Q07912); format: biochemical
Sequence of ACK1(h) (Q07912 whole entry): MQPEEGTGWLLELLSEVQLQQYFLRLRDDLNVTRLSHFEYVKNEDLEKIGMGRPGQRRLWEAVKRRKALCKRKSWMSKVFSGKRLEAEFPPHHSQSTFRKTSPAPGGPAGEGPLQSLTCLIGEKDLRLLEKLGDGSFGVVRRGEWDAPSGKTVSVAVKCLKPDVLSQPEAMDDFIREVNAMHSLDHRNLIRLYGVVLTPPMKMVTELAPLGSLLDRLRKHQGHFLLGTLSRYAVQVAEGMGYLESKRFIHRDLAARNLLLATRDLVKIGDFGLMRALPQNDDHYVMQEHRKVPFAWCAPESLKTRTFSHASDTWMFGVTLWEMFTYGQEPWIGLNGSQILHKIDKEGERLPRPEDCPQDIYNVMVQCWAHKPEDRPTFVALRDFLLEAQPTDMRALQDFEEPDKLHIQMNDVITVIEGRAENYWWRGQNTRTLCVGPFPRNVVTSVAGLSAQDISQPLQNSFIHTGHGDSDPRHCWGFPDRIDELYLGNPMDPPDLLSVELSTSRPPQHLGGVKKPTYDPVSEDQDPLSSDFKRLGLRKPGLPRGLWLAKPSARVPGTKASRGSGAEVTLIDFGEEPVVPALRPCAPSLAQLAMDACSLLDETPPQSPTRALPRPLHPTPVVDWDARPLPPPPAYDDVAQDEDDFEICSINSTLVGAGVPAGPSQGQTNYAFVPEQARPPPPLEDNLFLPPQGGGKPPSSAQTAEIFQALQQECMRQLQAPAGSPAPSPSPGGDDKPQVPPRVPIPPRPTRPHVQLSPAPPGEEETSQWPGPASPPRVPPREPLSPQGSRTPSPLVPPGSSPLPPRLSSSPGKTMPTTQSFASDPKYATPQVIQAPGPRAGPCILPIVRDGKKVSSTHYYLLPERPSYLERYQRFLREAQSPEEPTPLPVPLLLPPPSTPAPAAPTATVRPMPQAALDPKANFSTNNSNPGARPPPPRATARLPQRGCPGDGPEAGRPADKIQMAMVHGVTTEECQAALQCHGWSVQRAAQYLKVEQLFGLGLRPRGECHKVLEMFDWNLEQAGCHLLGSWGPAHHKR

[38] = molecular target: BrSK2(h) (Homo sapiens (Human), UniProt Q8IWQ3); format: biochemical
[39] = molecular target: JNK2α2(h) (Homo sapiens (Human), UniProt P45984); format: biochemical
[40] = molecular target: PrKX(h) (Homo sapiens (Human), UniProt P51817); format: biochemical

remaining activity at 1 µM [1]: 43% | remaining activity at 1 µM [2]: 99% | remaining activity at 1 µM [3]: 121% | remaining activity at 1 µM [4]: 105% | remaining activity at 1 µM [5]: 99% | remaining activity at 1 µM [6]: 85% | remaining activity at 1 µM [7]: 91% | remaining activity at 1 µM [8]: 81% | remaining activity at 1 µM [9]: 2% | remaining activity at 1 µM [10]: 104% | remaining activity at 1 µM [11]: 88% | remaining activity at 1 µM [12]: 106% | remaining activity at 1 µM [13]: 85% | remaining activity at 1 µM [14]: 79% | remaining activity at 1 µM [15]: 94% | remaining activity at 1 µM [16]: 43% | remaining activity at 1 µM [17]: 89% | remaining activity at 1 µM [18]: 33% | remaining activity at 1 µM [19]: 100% | remaining activity at 1 µM [20]: 59% | remaining activity at 1 µM [21]: 95% | remaining activity at 1 µM [22]: 26% | remaining activity at 1 µM [23]: 56% | remaining activity at 1 µM [24]: 100% | remaining activity at 1 µM [25]: 107% | remaining activity at 1 µM [26]: 102% | remaining activity at 1 µM [27]: 107% | % remaining activity [28]: 6% | remaining activity at 1 µM [29]: 92% | remaining activity at 1 µM [30]: 69% | remaining activity at 1 µM [31]: 76% | remaining activity at 1 µM [32]: 79% | remaining activity at 1 µM [33]: 28% | remaining activity at 1 µM [34]: 7% | remaining activity at 1 µM [35]: 107% | remaining activity at 1 µM [36]: 84% | remaining activity at 1 µM [37]: 97% | remaining activity at 1 µM [38]: 91% | remaining activity at 1 µM [39]: 100% | remaining activity at 1 µM [40]: 74%
SMILES: CCn1c(N2CCNCC2)nc2c(Br)c(Br)c(Br)c(Br)c21 [Compound 416, 4,5,6,7-tetrabromo-1-ethyl-2-(piperazin-1-yl)-1H-benzo[d]imidazole]
